Bounds are passed on as bounds.

The test system of assay [1] is Mus musculus. Description: Reduction of plasma glucose level in db/db mouse at 30 mg/kg, po relative to rosiglitazone. Set-up: scale not given: the % may be the effect or the level left. It counts as functional.
In assay [2] the target is T1, Peroxisome proliferator-activated receptor alpha (Homo sapiens, UniProt Q07869).
T1 sequence (Q07869 whole entry): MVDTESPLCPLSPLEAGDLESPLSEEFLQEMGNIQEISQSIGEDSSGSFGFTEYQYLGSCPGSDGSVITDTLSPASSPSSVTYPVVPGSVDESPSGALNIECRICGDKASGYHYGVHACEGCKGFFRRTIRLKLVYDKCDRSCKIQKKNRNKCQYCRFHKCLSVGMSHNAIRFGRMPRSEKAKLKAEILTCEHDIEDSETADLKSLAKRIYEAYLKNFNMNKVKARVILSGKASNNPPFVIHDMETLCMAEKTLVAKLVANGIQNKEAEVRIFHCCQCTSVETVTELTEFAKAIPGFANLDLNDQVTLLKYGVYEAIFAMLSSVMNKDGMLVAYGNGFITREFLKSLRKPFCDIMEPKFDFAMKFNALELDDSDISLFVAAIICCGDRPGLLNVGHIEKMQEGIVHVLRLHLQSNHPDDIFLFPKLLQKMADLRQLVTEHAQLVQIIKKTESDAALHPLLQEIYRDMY
Description: Activity at human PPARalpha in CV1 cells. It counts as cell-based, CV-1.

For assay [3], the target named is T2, Peroxisome proliferator-activated receptor gamma (Homo sapiens, UniProt P37231).
T2 sequence (P37231 whole entry): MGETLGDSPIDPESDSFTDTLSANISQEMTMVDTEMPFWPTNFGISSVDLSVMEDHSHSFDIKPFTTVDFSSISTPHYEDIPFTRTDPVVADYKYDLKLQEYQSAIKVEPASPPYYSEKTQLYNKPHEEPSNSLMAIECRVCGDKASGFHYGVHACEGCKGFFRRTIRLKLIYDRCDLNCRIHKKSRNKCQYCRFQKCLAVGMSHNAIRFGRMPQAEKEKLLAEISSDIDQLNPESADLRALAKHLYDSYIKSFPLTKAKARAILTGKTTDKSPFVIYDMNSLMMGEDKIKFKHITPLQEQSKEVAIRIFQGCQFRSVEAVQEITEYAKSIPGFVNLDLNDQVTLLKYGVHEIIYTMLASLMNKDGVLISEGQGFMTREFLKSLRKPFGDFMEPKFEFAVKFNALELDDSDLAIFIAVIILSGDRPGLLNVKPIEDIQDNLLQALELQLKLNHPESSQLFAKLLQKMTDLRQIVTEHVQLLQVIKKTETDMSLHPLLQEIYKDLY
Description: Activity at human PPARgamma in CV1 cells

In assay [4] the target is T1, Peroxisome proliferator-activated receptor alpha. Description: Displacement of [3H]2-(4-{2-[3-(2,4-difluoro-phenyl)-1-heptyl-ureido]-ethyl}-phenoxy)-2-methyl-butyric acid from hPPARalpha.
The target of assay [5] is T2, Peroxisome proliferator-activated receptor gamma. This is another data set of the same source.
Description: Displacement of [3H]2-methyl-2-(4-{3-propyl-(5-pyridin-2yl-thiophene-2-sulfonyl)-amino]-pro-pyl}-phenoxy)-propionic acid from human PPARgamma
In assay [6] the test system is Rattus norvegicus. Description: Reduction of plasma glucose level in orally dosed Zucker diabetic fatty rat. It counts as functional. The settings on record: ZDF, po.
Assay [7] has as its target T3, Peroxisome proliferator-activated receptor alpha (Homo sapiens) (UniProt Q07869).
T3 sequence (whole entry): T1 sequence (Q07869 whole entry)
Description: Activity at human PPARalpha in CV1 cells by CTF assay relative to 2-(4-{2-[3-(2,4-difluoro-phenyl)-1-heptyl-ureido]-ethyl}-phenoxy)-2-methyl-butyric acid. It counts as cell-based. The settings on record: CV-1.

In assay [1], `Cc1oc(-c2ccc(-c3ccccc3)cc2)nc1CCOc1ccc(CCC(=O)O)c(CNC(=O)OC(C)C)c1` registered an Activity of 56%. For the same compound, the EC50 (commonly the concentration needed to bring the measured effect to its halfway point) in assay [2] was 845 nM; in assay [3], 19 nM. The figures for the IC50 in assay [4] and in assay [5] were 3490 nM and 47 nM, respectively. For the same compound, the 50% effect level in assay [6] (ED50) was put at a dose of 0.02 mg/kg.

With `Cc1oc(-c2ccccc2)nc1CCOc1ccc(CCC(=O)O)c(CNC(=O)OC(C)C)c1`, the Activity in assay [1] was determined as 58%. The values for the EC50 in assay [2] and in assay [3] were 70 nM and 8 nM, respectively. For the same compound, in assay [7], the Efficacy came to 51%. Besides, the values for the half-inhibitory concentration (IC50) in assay [4] and in assay [5] were 146 nM and 26 nM, respectively.

`CC(C)(Oc1ccc(C(=O)c2ccc(Cl)cc2)cc1)C(=O)O` [FENOFIBRIC ACID]: a half-maximal response in assay [2] (EC50) required 2650 nM. Also, in assay [7], the Efficacy was 35%. In addition, in assay [4], the IC50 (as a rule, the point on the concentration scale where inhibition reaches its midpoint) was over 10000 nM.

Turning to `Cc1oc(-c2ccccc2)nc1CCOc1ccc(CCC(=O)O)c(CNC(=O)CCc2ccccc2)c1`, the EC50 stood at 2800 nM in assay [2] and 1020 nM in assay [3]. The Efficacy in assay [7] was 32%. The IC50 in assay [4] came out at 4960 nM; in assay [5], 161 nM.

Regarding `Cc1oc(-c2ccccc2)nc1CCOc1ccc(CCC(=O)O)c(CNC(=O)Oc2cnccn2)c1`, the EC50 in assay [2] was 35 nM; in assay [3], 7 nM. The same compound had an Efficacy in assay [7] of 60%. Moreover, the IC50 turned out to be 53 nM in assay [4] and 17 nM in assay [5].

`Cc1oc(-c2ccc(Oc3ccccc3)cc2)nc1CCOc1ccc(CCC(=O)O)c(CNC(=O)OC(C)C)c1`: the EC50 in assay [2] came to 78 nM; in assay [3], 2 nM. In assay [7], this compound gave an Efficacy of 46%. Moreover, the IC50 in assay [4] was determined as 516 nM; in assay [5], 50 nM. Further, in assay [6], the 50% effect level (ED50) was put at a dose of 0.05 mg/kg.

`Cc1oc(-c2ccc(-c3ncccn3)cc2)nc1CCOc1ccc(CCC(=O)O)c(CNC(=O)OC(C)C)c1` gave an Activity in assay [1] of 52%. Further, the EC50 in assay [2] was determined as 900 nM; in assay [3] it was 4 nM. Further, in assay [7], the Efficacy was 37%. Moreover, the IC50 in assay [4] is 9940 nM; in assay [5], 50 nM. Moreover, it took a dose of 0.04 mg/kg to reach the 50% effect level in assay [6] (ED50).

Compound `Cc1oc(-c2ccccc2)nc1CCOc1ccc(CCC(=O)O)c(CNC(=O)NCc2ccccc2)c1` yielded an EC50 in assay [3] of 2680 nM. Besides, in assay [7], the Efficacy worked out at 5%. For the same compound, the IC50 was over 10000 nM in assay [4] and 706 nM in assay [5].

For `Cc1oc(-c2ccccc2)nc1CCOc1ccc(CCC(=O)O)c(CNS(=O)(=O)Cc2ccccc2)c1`, the EC50 in assay [2] came out at 2940 nM; in assay [3], 527 nM. This compound returned an Efficacy in assay [7] of 33%. For the same compound, the figures for the IC50 in assay [4] and in assay [5] were 3390 nM and 72 nM, respectively.

Compound `Cc1oc(-c2ccc(-c3ccccc3)cc2)nc1CCOc1ccc(CCC(=O)O)c(CNC(=O)Oc2cnccn2)c1` showed an Activity in assay [1] of 87%. In addition, the figures for the EC50 in assay [2] and in assay [3] were 198 nM and 2 nM, respectively. This compound also gave an Efficacy in assay [7] of 68%. Moreover, the IC50 in assay [4] was 449 nM; in assay [5], 26 nM. Besides, in assay [6], the ED50 (as a rule, the dose at which the effect has come halfway, by size or by number of responders) came to 0.03 mg/kg.

The compound `Cc1sc(N2CCOCC2)nc1CCOc1ccc(CCC(=O)O)c(CNC(=O)OC(C)C)c1` gave an Activity in assay [1] of 58%. Further, the EC50 in assay [2] came to 986 nM; in assay [3], 28 nM. In assay [7], the Efficacy is 37%. Moreover, the IC50 in assay [4] worked out at 1490 nM; in assay [5], 22 nM. The same compound gave an ED50 in assay [6] of 0.12 mg/kg.

For `Cc1oc(-c2ccccc2)nc1CCOc1ccc(CCC(=O)O)c(CNC(=O)OCc2ccccc2)c1`, the EC50 is 515 nM in assay [2] and 115 nM in assay [3]. Moreover, the Efficacy in assay [7] stood at 54%. Moreover, the IC50 in assay [4] came to 441 nM; in assay [5], 91 nM.
